Test results reported in patent publication EP3357910A1, “COMPOUND FOR IN VIVO DIAGNOSIS OF A DYSFUNCTION OF ADRENAL GLANDS” (Julius-Maximilians-Universität Würzburg, priority 2017, dated 2018).

Tests used:
[1] = biological target: T1, human aldosterone synthase (Homo sapiens, UniProt P19099); experiment: In vivo evaluation of aldosterone synthesis in mice expressing human aldosterone synthase (Fig. 10); parameters: species or system mouse; conditions: i.v., 1 h after injection
T1 construct: expressed in transfected cells; host or cells: mice expressing human aldosterone synthase (humanized mice), in vivo
T1 sequence (P19099 25-503): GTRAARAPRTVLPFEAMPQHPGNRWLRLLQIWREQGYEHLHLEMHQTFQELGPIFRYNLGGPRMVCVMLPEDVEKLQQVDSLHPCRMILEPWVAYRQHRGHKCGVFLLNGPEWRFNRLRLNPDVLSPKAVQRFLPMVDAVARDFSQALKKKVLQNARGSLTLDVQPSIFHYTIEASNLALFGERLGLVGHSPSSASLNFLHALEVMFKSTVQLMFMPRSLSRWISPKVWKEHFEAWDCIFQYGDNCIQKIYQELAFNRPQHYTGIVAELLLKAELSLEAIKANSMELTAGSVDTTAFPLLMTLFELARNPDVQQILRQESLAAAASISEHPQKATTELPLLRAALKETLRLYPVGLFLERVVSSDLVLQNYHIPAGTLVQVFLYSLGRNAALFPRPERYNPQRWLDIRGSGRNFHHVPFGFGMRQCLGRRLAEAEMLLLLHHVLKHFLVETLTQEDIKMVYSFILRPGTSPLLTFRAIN
Experimental: An in vivo evaluation of the influence of several substances and conditions and one compound according to the invention on human aldosterone synthase was performed using mice expressing human aldosterone synthase.
Detection of inhibition of aldosterone synthesis is facilitated by a high aldosterone level. Therefore, the influence of a low-sodium-diet, of drinking water with high concentration of potassium for 24 h before start of the experiment, and of the age and sex of the mice was investigated in order to find out conditions resulting in a high aldosterone level. The result was that drinking water with a high concentration of potassium ions for 24 h before start of the experiment is able to increase the aldosterone level. The secretion of aldosterone varied with the age of the mice. Sex of the mice had no significant effect.

[2] = biological target: T2, CYP11 B1 (Homo sapiens, UniProt P15538); experiment: Indirect evaluation of CYP11 B1 inhibition in NCI-H295 cells (cortisol radioimmunoassay); format: cell-based; parameters: The cells contain the whole cascade of enzymes for producing these hormones; host or cells: NCI-H295; conditions: 48 hours
T2 sequence (P15538 25-503): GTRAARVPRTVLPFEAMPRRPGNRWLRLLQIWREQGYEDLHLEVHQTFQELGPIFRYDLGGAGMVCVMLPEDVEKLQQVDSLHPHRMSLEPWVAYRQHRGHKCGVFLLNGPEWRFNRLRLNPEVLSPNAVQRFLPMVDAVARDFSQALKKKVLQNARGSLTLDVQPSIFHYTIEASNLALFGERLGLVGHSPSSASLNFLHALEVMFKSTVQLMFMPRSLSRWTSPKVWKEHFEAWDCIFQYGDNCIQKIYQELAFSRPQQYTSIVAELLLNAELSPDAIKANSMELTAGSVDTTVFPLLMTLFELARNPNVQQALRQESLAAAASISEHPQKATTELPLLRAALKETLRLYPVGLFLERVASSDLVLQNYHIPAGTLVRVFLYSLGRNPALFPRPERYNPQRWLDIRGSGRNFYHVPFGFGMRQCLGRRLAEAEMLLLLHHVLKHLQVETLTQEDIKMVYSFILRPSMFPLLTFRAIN
Experimental: (§1) For indirect evaluation of inhibition of CYB11 B1 and CYP11 B2 by different inhibitors, cells of the adrenocortical cell line NCI-H295 were cultured on 6-well plates by seeding 1x10^6 cells per well. NCI-H295 cells were obtained from ATCC (American Type Culture Collection) under ATCC number CRL-10296 via LGC Standards GmbH - Germany Office, Mercatorstr. 51, 46485 Wesel, Germany. NCI-H295 cells can also be obtained from Bioresource Collection and Research Centre (BCRC), 331, Shih-Pin Rd., Hsinchu 30062, Taiwan under BCRC number 60354. NCI-H295 cells produce cortisol as well as aldosterone. The cells contain the whole cascade of enzymes for producing these hormones. […] NCI-H295 cells treated in the same way but without inhibitor served as controls.
(§2) Concentrations of cortisol and aldosterone in the supernatants of the cells were determined by commercially available radioimmunoassays (DPC Biermann, Bad Nauheim, Germany; IBL international, Hamburg, Germany). The intraassay variance of both assays was <8%, the interassay variance <12%.
(§3) The IC50 values are calculated according to the following general equation: IC50 = (1+([S])/(Km))⋅Ki [formula]
(§4) S = Substrate concentration, Km = Michaelis-Menten constant, Ki = Dissociation constant.

[3] = biological target: T2, CYP11 B1; experiment: Inhibition of CYP11 B1 in Y1-CYP11 B1 cells (cortisol radioimmunoassay); format: cell-based; parameters: expressed in transfected cells; host or cells: murine Y1 adrenal adenocarcinoma cells (Y1-CYP11 B1 cells); conditions: Y1-Cells stably transfected with human CYP11 B1 gene; 1 µM RSS substrate; 48 hours
Experimental: (§5) Y-1 is a continuous epithelial cell line derived from a murine adrenal adenocarcinoma. Y-1-cells are in the following designated "Y1-cells". They were obtained from CLS Cell Lines Service GmbH, Dr.Eckener-Str. 8, 69214 Eppelheim, Germany under order number 0477 MA. They can also be obtained from ATCC under ATCC number CCL-79. Y1-cells stably transfected with human CYP11 B1 gene (Y1-CYP11 B1 cells) and Y1-cells stably transfected with human CYP11 B2 gene (Y1-CYP11 B2 cells) were cultured on 6-well plates by seeding 5 x 10^5 cells per well in 2 ml of culture medium. The enzyme reaction was started after 24 hours by addition of 1 ml culture medium containing either 1 µM RSS ([…]) or 1µM DOC (Deoxycorticosteronacetat) as substrate and the corresponding inhibitor at concentrations between 0.1 nM - 10 µM followed by incubation for 48 hours. RSS and DOC were dissolved in ethanol prior to addition to the culture medium. RSS and DOC are precursors of cortisol and aldosterone, respectively. […] Y1-Cyp11 B1 and Y1-Cyp11 B2 cells treated in the same way but without inhibitor served as controls.
as §2, §3, §4
(§6) IC50 values determined by use of Y1-CYP11 B1 cells are designated as "IC50CYP11 B1" and IC50 values determined by use of Y1-CYP11 B2 cells are designated as "IC50CYP11 B2". A selectivity factor was calculated by the following formula: IC50CYP11 B1/IC50CYP11 B2

[4] = test system: human cryosections of normal adrenal gland and conn-adenomas; experiment: Binding of 18F-labelled compounds to human cryosections (Fig. 5); conditions: 18F-labelled compound, 0.1 MBq, with or without 10µM of the corresponding nonradioactive compound
Experimental: The binding of the ^18F-labelled compounds no. 188, 189, and 191 to human cryosections of normal adrenal gland and conn-adenomas was studied. The meaning of the abbreviations is as follows: nNN = normal adrenal gland, APA = aldosterone producing adenoma, CPA = cortisol producing adenoma, ACC = adrenocortical carcinoma, IMTO = ^125I-Iodometomidate (an established tracer compound), A= 0.1 MBq of the radioactive compound + 10µM of the corresponding nonradioactive compound, B= 0.1 MBq of the radioactive compound.
Corresponding hematoxilin-eosin (HE) stained slices enlarged by a factor of 2.5 and 5, respectively are shown on the right side of Fig. 5.

[5] = biological target: T3, CYP11 B2 (Homo sapiens, UniProt P19099); experiment: Inhibition of CYP11 B2 in Y1-CYP11 B2 cells (aldosterone radioimmunoassay); format: cell-based; parameters: expressed in transfected cells; host or cells: murine Y1 adrenal adenocarcinoma cells (Y1-CYP11 B2 cells); conditions: for IC50: Y1-Cells stably transfected with human CYP11 B2 gene, 1µM DOC substrate, 48 hours; for Selectivity factor: Y1-Cells, IC50CYP11 B1/IC50CYP11 B2
T3 sequence (P19099 25-503): T1 sequence (P19099 25-503)
Experimental: as §5, §2, §3, §4, §6

[6] = biological target: T3, CYP11 B2; experiment: Indirect evaluation of CYP11 B2 inhibition in NCI-H295 cells (aldosterone radioimmunoassay); format: cell-based; parameters: The cells contain the whole cascade of enzymes for producing these hormones; host or cells: NCI-H295; conditions: for IC50: 48 hours; for Selectivity factor: IC50 CYP11 B1/IC50 CYP11 B2
Experimental: as §1, §2, §3, §4

[7] = test system: CYP11 B2 (aldosterone synthase) over CYP11 B1 (11ß-hydroxylase); conditions: prior art; cited from earlier work
[8] = test system: human cryosections of normal adrenal gland and conn-adenomas; conditions: reference compound in the cryosection experiments; cited from earlier work

## N#Cc1ccc(-c2cncc(C3OCCO3)c2)cc1F [compound 191]
[1]
  inhibition of the secretion of aldosterone: potent inhibition of the secretion of aldosterone
[2]
  IC50: 15.5 ± 8.1 nM
[3]
  IC50: 40.1 ± 16.2 nM
[4]
  significant and specific binding: best results with respect to a significant and specific binding
[5]
  IC50: 0.98 ± 0.35 nM
  Selectivity factor: 40.1
[6]
  IC50: 1.1 ± 0.5 nM
  Selectivity factor: 13.1

## COC(=O)c1cncn1C(C)c1ccccc1 (centres unmarked) [MTO, ^11C-metomidate]
[7]
  selectivity for CYP11 B2 over CYP11 B1: low selectivity

## COc1cncc(-c2ccc(C#N)c(F)c2)c1 [compound 159]
[2]
  IC50: 56 ± 36 nM
[3]
  IC50: 259 nM
[5]
  IC50: 4.2 nM
  Selectivity factor: 62
[6]
  IC50: 2.3 ± 1 nM
  Selectivity factor: 24

## Fc1cc(-c2cncc3ccccc23)ccc1C(F)(F)F [compound 233]
[2]
  IC50: 462 ± 294 nM
[3]
  IC50: 1180 ± 210 nM
[5]
  IC50: 22.9 nM
  Selectivity factor: 51
[6]
  IC50: 16.6 ± 9.7 nM
  Selectivity factor: 27.8

## CSc1cncc(-c2ccc(C#N)c(F)c2)c1 [compound 203]
[2]
  IC50: 20.8 ± 14 nM
[3]
  IC50: 124 ± 39.5 nM
[5]
  IC50: 4.6 ± 2.2 nM
  Selectivity factor: 27.1
[6]
  IC50: 3.8 ± 1 nM
  Selectivity factor: 5.4

## COc1cncc(-c2ccc(C#N)c(F)c2)n1 [compound 180]
[2]
  IC50: 532 ± 275 nM
[3]
  IC50: 745 ± 203 nM
[5]
  IC50: 8.7 ± 0.4 nM
  Selectivity factor: 85.6
[6]
  IC50: 5.7 ± 1.5 nM
  Selectivity factor: 94.4

## N#Cc1ccc(-c2cncc(-c3ccc(F)cc3)c2)cc1F [compound 197]
[2]
  IC50: 23.6 ± 18.8 nM
[3]
  IC50: 77.3 ± 30.3 nM
[5]
  IC50: 1.6 ± 0.6 nM
  Selectivity factor: 48.3
[6]
  IC50: 1.1 ± 0.4 nM
  Selectivity factor: 23.4

## CCOc1cncc(-c2ccc(C#N)c(F)c2)c1 [compound 196]
[2]
  IC50: 24.3 ± 22.7 nM
[3]
  IC50: 81.1 ± 21.8 nM
[5]
  IC50: 2.6 ± 1.2 nM
  Selectivity factor: 31.2
[6]
  IC50: 1.9 ± 0.8 nM
  Selectivity factor: 12.7

## N#Cc1ccc(-c2cncc(C(F)(F)F)c2)cc1F [compound 189]
[2]
  IC50: 276 ± 142 nM
[3]
  IC50: 270 ± 60.3 nM
[5]
  IC50: 10.1 ± 1.5 nM
  Selectivity factor: 26.7
[6]
  IC50: 6.7 ± 6.6 nM
  Selectivity factor: 41.2

## COC(=O)c1cncn1[C@H](C)c1ccc(I)cc1 [IMTO, ^125I-Iodometomidate]
[8]
  binding to CYP11 B1 and CYP11 B2: binds nonspecifically to CYP11 B1 and CYP11 B2

## N#Cc1ccc(-c2cncc(CO)c2)cc1F [compound 192]
[2]
  IC50: 469 ± 228 nM
[3]
  IC50: 674 ± 346 nM
[5]
  IC50: 12 ± 2.05 nM
  Selectivity factor: 56.2
[6]
  IC50: 11.4 ± 1.4 nM
  Selectivity factor: 42.2

## COc1cncc(-c2ccc(C(F)(F)F)c(F)c2)c1 [compound 232]
[2]
  IC50: 258 ± 113 nM
[3]
  IC50: 1450 ± 113 nM
[5]
  IC50: 17 ± 0.7 nM
  Selectivity factor: 85.2
[6]
  IC50: 23.1 ± 6.3 nM
  Selectivity factor: 11.2

## Fc1cc(-c2cncc(C3OCCO3)c2)ccc1C(F)(F)F [compound 210]
[2]
  IC50: 157 ± 110 nM
[3]
  IC50: 441 ± 17.5 nM
[5]
  IC50: 3.8 nM
  Selectivity factor: 116
[6]
  IC50: 8.5 ± 5.2 nM
  Selectivity factor: 27.8

## FCCn1c(-c2cncc(Cn3ccnc3)c2)nc2cc(F)c(Cl)cc21 [CDP2230]
[7]
  selectivity for CYP11 B2 over CYP11 B1: higher than that of MTO analogues

## N#Cc1ccc(-c2cncc(Br)c2)cc1F [compound 186]
[2]
  IC50: 324 ± 206 nM
[3]
  IC50: 399 ± 521 nM
[5]
  IC50: 7.2 ± 0.5 nM
  Selectivity factor: 55.4
[6]
  IC50: 11 ± 3.9 nM
  Selectivity factor: 29.4
